Measurements reported in patent US20050119272A1, “Use of phosphodiesterase antagonists to treat insulin resistance” (DiaMedica Inc., priority 2002, published 2005).

Key:
[1] = system: atropine-treated rats; assay: Rapid insulin sensitivity test (RIST) in the atropine model of 75% HDIR in rats; type: in vivo, rat
Experimental: Male Sprague Dawley rats (250-300 g) were allowed free access to water and normal rodent food for 1 week prior to all studies. Rats were fasted for 8 hours overnight and fed for 2 hours before the start of study. Rats were anesthetized with pentobarbital-sodium (65 mg/ml, ip injection, 0.1 ml/100 g body weight). Animals were placed on a heated thermostatically controlled surgical table to maintain body temperature during surgery and the experimental procedure. An extra-corporeal arterial-venous shunt (the loop) was established between the right femoral artery and right femoral vein, according to a published, standard operating procedure developed in our laboratory (Xie et al., 1996). The loop allows for regular blood sampling of arterial blood throughout the experiment as well as infusion of intravenous drugs and monitoring of arterial blood pressure. […] A laparotomy was performed and an indwelling portal venous catheter was inserted using a portal vein puncture technique. The portal catheter was used to administer the phosphodiesterase inhibitor directly to the liver. […] At this point, blood samples (25 μl) were taken at regular intervals from the loop and analyzed for glucose concentration. […] Glucose levels were monitored every 2 minutes during and after the infusion of insulin. […]

[2] = system: cats; assay: Development of insulin resistance in cats after intraportal muscarinic antagonists; type: in vivo, cat
Excerpt: To avoid the complexity of the reaction to hypoglycemia, the rapid insulin sensitivity test (RIST) was employed (Lautt et al., Can. J. Physiol. Pharmacol. 76:1080 (1998)) wherein a euglycemic clamp was used following the administration of insulin and the response was quantitated as the amount of glucose required to be infused over the test period in order to hold arterial blood glucose levels constant.

CCCOc1ccccc1-c1nc2nn[nH]c2c(=O)[nH]1 [zaprinast]
RIST index ([1]; after zaprinast 0.1 mg/kg ipv, following atropine-induced 75% HDIR, n=8): 157.4 ± 6.1 mg/kg | reversal of HDIR produced by atropine ([1]; zaprinast 0.1 mg/kg ipv, rats): able to reverse the HDIR produced by atropine

COc1ccccc1CNCCCCCCNCCCCCCCCNCCCCCCNCc1ccccc1OC [methoctramine]
dose required to produce a full insulin resistance ([2]; administered into the portal vein): 10^−6 μmol/kg

CN1CCN(CC(=O)N2c3ccccc3C(=O)Nc3cccnc32)CC1 [pirenzepine]
dose achieving a similar degree of insulin resistance [2]: 10^−7 mmol/kg
